The results in this text go back to PMC11638965, “Leveraging Dual-Ligase Recruitment to Enhance Protein Degradation via a Heterotrivalent Proteolysis Targeting Chimera” (Journal of the American Chemical Society, 2024).

The structures appear in SMILES notation. Like-named read-outs stand apart in the source and are kept apart here.

In one assay the target is T1, BRD2 (Homo sapiens, UniProt P25440).
T1 construct: HiBiT, is appended to the N-terminus of endogenous BRD2, BRD3, and BRD4; endogenous in cells
T1 sequence (P25440 whole entry): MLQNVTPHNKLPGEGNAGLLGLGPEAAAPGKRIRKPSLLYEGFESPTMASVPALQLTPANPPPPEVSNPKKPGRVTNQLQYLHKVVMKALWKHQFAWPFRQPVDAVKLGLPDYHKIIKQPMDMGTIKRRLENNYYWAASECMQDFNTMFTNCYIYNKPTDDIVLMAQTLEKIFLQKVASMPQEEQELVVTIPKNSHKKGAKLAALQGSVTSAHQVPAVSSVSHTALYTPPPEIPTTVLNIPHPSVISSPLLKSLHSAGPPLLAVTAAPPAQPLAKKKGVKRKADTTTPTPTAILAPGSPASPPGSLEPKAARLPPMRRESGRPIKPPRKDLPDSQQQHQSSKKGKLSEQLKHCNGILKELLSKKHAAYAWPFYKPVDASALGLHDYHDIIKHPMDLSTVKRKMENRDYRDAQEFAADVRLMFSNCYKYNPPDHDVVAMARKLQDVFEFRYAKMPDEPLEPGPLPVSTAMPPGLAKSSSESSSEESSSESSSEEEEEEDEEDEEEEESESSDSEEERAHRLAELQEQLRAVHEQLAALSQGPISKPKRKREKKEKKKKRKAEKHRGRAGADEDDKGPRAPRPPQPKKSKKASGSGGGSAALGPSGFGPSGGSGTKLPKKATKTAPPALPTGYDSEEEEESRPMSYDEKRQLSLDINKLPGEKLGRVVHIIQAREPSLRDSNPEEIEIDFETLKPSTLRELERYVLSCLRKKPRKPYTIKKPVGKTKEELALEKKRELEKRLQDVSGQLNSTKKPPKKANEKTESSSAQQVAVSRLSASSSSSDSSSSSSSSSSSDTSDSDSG
Kind of assay: Live cell kinetic HiBiT degradation assay, HiBiT-BRD2 HEK293 cells. The note with it: for DC50: HiBiT-BRD2 CRISPR knock-in HEK293 cells, live cell kinetic degradation, 24 h, read-out: Dmax 50 BRD2; for λmax BRD2 (degradation rate): HiBiT-BRD2 knock-in HEK293 cells. The assay is classed as cell-based. The procedure:
(§1) HEK293 HiBiT-BRD2 (LgBiT stable), HEK293 HiBiT-BRD3 (LgBiT stable), and HEK293 HiBiT-BRD4 (LgBiT stable) were created using CRISPR/Cas9 to insert at HiBiT tag at the N-terminal genomic loci of BRD2, BRD3, or BRD4 in a cell line stably expressing LgBiT protein as described previously.[23]
(§2) For kinetic degradation experiments, HEK293 HiBiT-BRD2, 3, or 4 (LgBiT stable) cells and HEK293 HiBiT-BRD4 (LgBiT) CRBN KO and VHL KO cells were plated at 20,000 cells/well in DMEM +10% FBS in white 96-well tissue culture plates and allowed to adhere overnight. The next day, media was removed and 90 μL of prewarmed CO2-independent medium (Gibco) containing Endurazine (Promega) at a 1:100 dilution from stock was added. Plates were incubated at 37 °C for 3 h to allow luminescence to equilibrate. A threefold dilution series of each PROTAC at 10x the desired final concentration was prepared (with the amount of DMSO in each treatment condition kept constant). After luminescence equilibration, a preread luminescence measurement was taken (prior to compound addition) to allow for baseline normalization to account for possible plating differences. Cells were then treated with 10 μL of the prepared PROTAC dilution series (in triplicate or quadruplicate). Treated plates were placed in a GloMax Discover luminometer (Promega) prewarmed to 37 °C and luminescence measurements were obtained every 7 min for 24 h. Kinetic degradation plots were obtained by first normalizing time course luminescence readings in each well to the preread measurement, then to the average value of the DMSO only control at each time point. Data was analyzed using GraphPad Prism (version 8) and excel. Dmax values were identified as the lowest luminescence reading in each well. Rate constant values were calculated using a one phase exponential decay Y = (Y0-Plateau) e(K*^X) + Plateau using Prism (Y0 constrained to 1). Dmax 50 values were calculated by plotting Dmax as a function of concentration, then fitting plots using the following equation: [drawing 1] to determine IC50.

For a further assay, the target named is T2, BRD3 (Homo sapiens, UniProt Q15059).
T2 construct: HiBiT, is appended to the N-terminus of endogenous BRD2, BRD3, and BRD4; endogenous in cells
T2 sequence (Q15059 whole entry): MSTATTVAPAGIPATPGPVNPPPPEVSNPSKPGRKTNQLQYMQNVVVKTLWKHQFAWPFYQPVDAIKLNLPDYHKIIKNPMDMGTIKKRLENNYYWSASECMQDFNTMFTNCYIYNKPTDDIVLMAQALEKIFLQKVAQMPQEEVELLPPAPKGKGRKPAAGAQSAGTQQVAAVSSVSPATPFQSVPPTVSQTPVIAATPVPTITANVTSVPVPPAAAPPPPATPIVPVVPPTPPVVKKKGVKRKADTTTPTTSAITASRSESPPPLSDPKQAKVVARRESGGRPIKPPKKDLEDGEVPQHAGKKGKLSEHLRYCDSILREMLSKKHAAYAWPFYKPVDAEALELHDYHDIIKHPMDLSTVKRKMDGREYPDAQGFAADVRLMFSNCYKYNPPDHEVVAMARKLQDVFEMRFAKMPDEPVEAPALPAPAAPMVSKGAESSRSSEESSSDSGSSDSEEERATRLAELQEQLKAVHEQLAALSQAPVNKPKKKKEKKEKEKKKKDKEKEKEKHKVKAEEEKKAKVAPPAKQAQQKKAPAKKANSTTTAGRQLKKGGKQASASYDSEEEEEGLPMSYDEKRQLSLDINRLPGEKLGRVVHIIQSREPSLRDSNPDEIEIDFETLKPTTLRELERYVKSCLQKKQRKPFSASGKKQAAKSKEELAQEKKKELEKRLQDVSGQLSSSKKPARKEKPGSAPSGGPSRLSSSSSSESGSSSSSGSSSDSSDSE
The assay can be described thus: Live cell kinetic HiBiT degradation assay, HiBiT-BRD3 HEK293 cells. In kind it is cell-based. The note with it: for DC50: HiBiT-BRD3 CRISPR knock-in HEK293 cells, live cell kinetic degradation, 24 h, read-out: Dmax 50 BRD3; for λmax BRD3 (degradation rate): HiBiT-BRD3 knock-in HEK293 cells. The procedure: as §1, §2

A further assay deals with BRD4 (Homo sapiens, UniProt O60885). Kind of assay: Live cell kinetic HiBiT degradation assay, HiBiT-BRD4 HEK293 cells (parental, CRBN KO, VHL KO). In kind it is cell-based. Conditions: for EC50: HiBiT-BRD4 CRISPR knock-in HEK293 cells, live cell kinetic degradation, 24 h, read-out: Dmax 50 BRD4; for λmax BRD4 (degradation rate): HiBiT-BRD4 knock-in HEK293 cells; for fold increase in degradation of BRD4 (Dmax 50) vs matched pair: 23 vs 1, 26 vs 23, 30 vs 2, HiBiT-BRD4 HEK293 cells. The procedure, abridged: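 Endogenous N-terminal HiBiT-BRD4 HEK293 cells stably expressing LgBiT (parental, CRBN KO, VHL KO) in CO2-independent medium with Endurazine, pre-equilibrated 3 h at 37 °C. Luminescence read every 7 min for 24 h after PROTAC addition (threefold series), normalized to pre-read and DMSO. Dmax = lowest reading; rate from one-phase decay; Dmax50 from Dmax-vs-concentration fit.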

The subject of another assay is RKO WT cells. Kind of assay: cells. In kind it is cell-based, human. Conditions: Homo sapiens, 316 pM to 10 μM.
The mark [1] stands for this setting: WT RKO, n = 3 (Table S4), read-out: EC50 RKO.

On to `Cc1ncsc1-c1ccc(CNC(=O)[C@@H]2C[C@@H](O)CN2C(=O)[C@@H](NC(=O)COCC(C)(COCCOCCOCCOC(=O)C[C@@H]2N=C(c3ccc(Cl)cc3)c3c(sc(C)c3C)-n3c(C)nnc32)COCCOCCOCCN2CCN(c3cc4c(cc3F)C(=O)N(C3CCC(=O)NC3=O)C4=O)CC2)C(C)(C)C)cc1` (mixture of isomers) [AB3030 (32), (17S)-11-((2-(2-(2-(4-(2-(2,6-dioxopiperidin-3-yl)-6-fluoro-1,3-dioxoisoindolin-5-yl)piperazin-1-yl)ethoxy)ethoxy)ethoxy)methyl)-17-((2S,4R)-4-hydroxy-2-((4-(4-methylthiazol-5-yl)benzyl)carbamoyl)pyrrolidine-1-carbonyl)-11,18,18-trimethyl-15-oxo-3,6,9,13-tetraoxa-16-azanonadecyl 2-((S)-4-(4-chlorophenyl)-2,3,9-trimethyl-6H-thieno[3,2-f][1,2,4]triazolo[4,3-a][1,4]diazepin-6-yl)acetate], for which, on BRD2, the DC50 turned out to be 25 nM and the “λmax BRD2 (degradation rate)” value worked out at 2.04 h⁻¹. Also, at BRD3, the DC50 stood at 1.7 nM and the “λmax BRD3 (degradation rate)” value worked out at 2.97 h⁻¹. Also, on BRD4, the EC50 turned out to be 7.4 nM and the “λmax BRD4 (degradation rate)” value was 2.19 h⁻¹. Besides, the EC50 in the assay with RKO WT cells (setting [1]) came out at 402 nM.
Regarding `Cc1ncsc1-c1ccc(CNC(=O)[C@@H]2C[C@@H](O)CN2C(=O)[C@@H](NC(=O)COCC(C)(COCCOCCOCCNc2cccc3c2C(=O)N(C2CCC(=O)NC2=O)C3=O)COCCOCCOCCOC(=O)C[C@@H]2N=C(c3ccc(Cl)cc3)c3c(sc(C)c3C)-n3c(C)nnc32)C(C)(C)C)cc1` (mixture of isomers) [AB3062 (23), (17S)-11-((2-(2-(2-((2-(2,6-dioxopiperidin-3-yl)-1,3-dioxoisoindolin-4-yl)amino)ethoxy)ethoxy)ethoxy)methyl)-17-((2S,4R)-4-hydroxy-2-((4-(4-methylthiazol-5-yl)benzyl)carbamoyl)pyrrolidine-1-carbonyl)-11,18,18-trimethyl-15-oxo-3,6,9,13-tetraoxa-16-azanonadecyl 2-((S)-4-(4-chlorophenyl)-2,3,9-trimethyl-6H-thieno[3,2-f][1,2,4]triazolo[4,3-a][1,4]diazepin-6-yl)acetate], the “λmax BRD2 (degradation rate)” value at BRD2 was found to be 1.12 h⁻¹. In addition, on BRD3, the DC50 was found to be 5.7 nM and the “λmax BRD3 (degradation rate)” value was 2.06 h⁻¹. Besides, on BRD4, the “fold increase in degradation of BRD4 (Dmax 50) vs matched pair” value was found to be 3.4 fold, the EC50 turned out to be 11 nM and the “λmax BRD4 (degradation rate)” value was 1.40 h⁻¹. For the same compound, the EC50 in the assay with RKO WT cells (setting [1]) was 420 nM.
As to `Cc1ncsc1-c1ccc(CNC(=O)[C@@H]2C[C@@H](O)CN2C(=O)[C@@H](NC(=O)COCC(C)(COCCOCCOCCNc2cc3c(cc2F)C(=O)N(C2CCC(=O)NC2=O)C3=O)COCCOCCOCCOC(=O)C[C@@H]2N=C(c3ccc(Cl)cc3)c3c(sc(C)c3C)-n3c(C)nnc32)C(C)(C)C)cc1` (mixture of isomers) [AB3063 (26), (17S)-11-((2-(2-(2-((2-(2,6-dioxopiperidin-3-yl)-6-fluoro-1,3-dioxoisoindolin-5-yl)amino)ethoxy)ethoxy)ethoxy)methyl)-17-((2S,4R)-4-hydroxy-2-((4-(4-methylthiazol-5-yl)benzyl)carbamoyl)pyrrolidine-1-carbonyl)-11,18,18-trimethyl-15-oxo-3,6,9,13-tetraoxa-16-azanonadecyl 2-((S)-4-(4-chlorophenyl)-2,3,9-trimethyl-6H-thieno[3,2-f][1,2,4]triazolo[4,3-a][1,4]diazepin-6-yl)acetate], at BRD2, the DC50 amounted to 4.7 nM and the “λmax BRD2 (degradation rate)” value was 1.72 h⁻¹. Moreover, on BRD3, the DC50 is 1.5 nM and the “λmax BRD3 (degradation rate)” value came out at 2.54 h⁻¹. Further, on BRD4, the “fold increase in degradation of BRD4 (Dmax 50) vs matched pair” value was 3.7 fold, the EC50 turned out to be 3 nM and the “λmax BRD4 (degradation rate)” value is 1.98 h⁻¹. Further, in the assay on RKO WT cells (72 h, 3 days, n = 3 (Figures 5 and 8C, Table S5), read-out: EC50 RKO WT), the EC50 was 260 nM. In addition, in the assay with RKO WT cells (setting [1]), the EC50 came out at 165 nM.
In the case of `Cc1ncsc1-c1ccc(CNC(=O)[C@@H]2C[C@@H](O)CN2C(=O)[C@@H](NC(=O)COCC(C)(COCCOCCOCCNc2cccc3c2C(=O)N(C2CCC(=O)NC2=O)C3=O)COCCOCCOC(=O)C[C@@H]2N=C(c3ccc(Cl)cc3)c3c(sc(C)c3C)-n3c(C)nnc32)C(C)(C)C)cc1` (mixture of isomers) [AB3064 (25), (14S)-8-((2-(2-(2-((2-(2,6-dioxopiperidin-3-yl)-1,3-dioxoisoindolin-4-yl)amino)ethoxy)ethoxy)ethoxy)methyl)-14-((2S,4R)-4-hydroxy-2-((4-(4-methylthiazol-5-yl)benzyl)carbamoyl)pyrrolidine-1-carbonyl)-8,15,15-trimethyl-12-oxo-3,6,10-trioxa-13-azahexadecyl 2-((S)-4-(4-chlorophenyl)-2,3,9-trimethyl-6H-thieno[3,2-f][1,2,4]triazolo[4,3-a][1,4]diazepin-6-yl)acetate], at BRD2, the DC50 amounted to 74 nM and the “λmax BRD2 (degradation rate)” value was 1.34 h⁻¹. Moreover, at BRD3, the DC50 turned out to be 8.1 nM and the “λmax BRD3 (degradation rate)” value stood at 1.69 h⁻¹. Further, at BRD4, the EC50 is 31 nM and the “λmax BRD4 (degradation rate)” value stood at 1.09 h⁻¹. For the same compound, in the assay with RKO WT cells (setting [1]), the EC50 amounted to 904 nM.
Consider `Cc1ncsc1-c1ccc(CNC(=O)[C@@H]2C[C@@H](O)CN2C(=O)[C@@H](NC(=O)COCC(C)(COCCOCCOCCNc2cc3c(cc2F)C(=O)N(C2CCC(=O)NC2=O)C3=O)COCCOCCOC(=O)C[C@@H]2N=C(c3ccc(Cl)cc3)c3c(sc(C)c3C)-n3c(C)nnc32)C(C)(C)C)cc1` (mixture of isomers) [AB3065 (28), (14S)-8-((2-(2-(2-((2-(2,6-dioxopiperidin-3-yl)-6-fluoro-1,3-dioxoisoindolin-5-yl)amino)ethoxy)ethoxy)ethoxy)methyl)-14-((2S,4R)-4-hydroxy-2-((4-(4-methylthiazol-5-yl)benzyl)carbamoyl)pyrrolidine-1-carbonyl)-8,15,15-trimethyl-12-oxo-3,6,10-trioxa-13-azahexadecyl 2-((S)-4-(4-chlorophenyl)-2,3,9-trimethyl-6H-thieno[3,2-f][1,2,4]triazolo[4,3-a][1,4]diazepin-6-yl)acetate], for which, on BRD2, the DC50 came out at 23 nM and the “λmax BRD2 (degradation rate)” value is 1.46 h⁻¹. For the same compound, at BRD3, the DC50 was determined as 1.2 nM and the “λmax BRD3 (degradation rate)” value was found to be 2.14 h⁻¹. Moreover, at BRD4, the EC50 came out at 2.9 nM and the “λmax BRD4 (degradation rate)” value came to 1.51 h⁻¹. Moreover, the EC50 in the assay with RKO WT cells (setting [1]) amounted to 214 nM.
`Cc1ncsc1-c1ccc([C@H](C)NC(=O)[C@@H]2C[C@@H](O)CN2C(=O)[C@@H](NC(=O)COCC(C)(COCCOCCOCCNc2cccc3c2C(=O)N(C2CCC(=O)NC2=O)C3=O)COCCOCCOCCOC(=O)C[C@@H]2N=C(c3ccc(Cl)cc3)c3c(sc(C)c3C)-n3c(C)nnc32)C(C)(C)C)cc1` (mixture of isomers) [AB3066 (24), (17S)-11-((2-(2-(2-((2-(2,6-dioxopiperidin-3-yl)-1,3-dioxoisoindolin-4-yl)amino)ethoxy)ethoxy)ethoxy)methyl)-17-((2S,4R)-4-hydroxy-2-(((S)-1-(4-(4-methylthiazol-5-yl)phenyl)ethyl)carbamoyl)pyrrolidine-1-carbonyl)-11,18,18-trimethyl-15-oxo-3,6,9,13-tetraoxa-16-azanonadecyl 2-((S)-4-(4-chlorophenyl)-2,3,9-trimethyl-6H-thieno[3,2-f][1,2,4]triazolo[4,3-a][1,4]diazepin-6-yl)acetate]: at BRD2, the DC50 was 7.3 nM and the “λmax BRD2 (degradation rate)” value turned out to be 2.04 h⁻¹. For the same compound, at BRD3, the “λmax BRD3 (degradation rate)” value came to 2.66 h⁻¹. Further, at BRD4, the EC50 amounted to 3 nM and the “λmax BRD4 (degradation rate)” value was 2.16 h⁻¹. In the assay on RKO WT cells (setting [1]), the EC50 stood at 151 nM.
